Laboratory results from US4797362A (priority 1985, dated 1989).
Like-named read-outs stand apart in the source and are kept apart here. Numbered stars: 1 amine (or outer) side, 2 acyl side, 3 side chain; on linkers, the order of the positions; unused ones are H or OH. Peptide text beside a SMILES is read from it. CO = O=C([*:1])[*:2]

Columns and labels:
[1] = test system: alkaline protease Ya (enzyme Ya) produced by Bacillus sp. Y (FERM BP-1029); type: biochemical; details: for Relative Activity Enzyme Ya: pH 7.2, 30 min
[2] = test system: alkaline protease Yb (enzyme Yb) produced by Bacillus sp. Y (FERM BP-1029); type: biochemical; details: for Relative Activity Enzyme Yb: pH 7.2, 30 min

Chymostatin
Inhibition of enzyme Ya (in words) [1]: not inhibited
Relative Activity Enzyme Ya [1]: 77
Inhibition of enzyme Yb (in words) [2]: not inhibited
Relative Activity Enzyme Yb [2]: 75

NC(N)=O [Urea]
Relative Activity Enzyme Ya [1]: 130
Relative Activity Enzyme Yb [2]: 82

O=C(O)c1cc[c]([Hg][Cl])cc1 [PCMB]
Inhibition of enzyme Ya (in words) [1]: not inhibited
Relative Activity Enzyme Ya ([1]; 1000 µM): 122
Inhibition of enzyme Yb (in words) [2]: not inhibited
Relative Activity Enzyme Yb ([2]; 1000 µM): 92

O=C(O)CN(CCN(CC(=O)O)CC(=O)O)CC(=O)O [EDTA]
Inhibition of enzyme Ya (in words) [1]: not inhibited
Relative Activity Enzyme Ya ([1]; 5000 µM): 97
Inhibition of enzyme Yb (in words) [2]: not inhibited
Relative Activity Enzyme Yb ([2]; 5000 µM): 100

CC(C)[C@H](NC(=O)[C@H](CCCNC(=N)N)NC(=O)N[C@@H](Cc1ccccc1)C(=O)O)C(=O)N[C@H](C=O)CCCNC(=N)N [Antipain] ({Phe-CO}-Arg-Val-Arg-aldehyde)
Inhibition of enzyme Ya (in words) [1]: not inhibited
Relative Activity Enzyme Ya [1]: 124
Inhibition of enzyme Yb (in words) [2]: not inhibited
Relative Activity Enzyme Yb [2]: 87

O=S(=O)(F)Cc1ccccc1 [PMSF]
Inhibition of enzyme Ya (in words) [1]: inhibited
Relative Activity Enzyme Ya ([1]; 1000 µM): 0
Inhibition of enzyme Yb (in words) [2]: inhibited
Relative Activity Enzyme Yb ([2]; 1000 µM): 1
